{
  "source": "paper PMC11184554",
  "about": "“Nature-Inspired Gallinamides Are Potent Antischistosomal Agents: Inhibition of the Cathepsin B1 Protease Target and Binding Mode Analysis” (ACS Infectious Diseases, 2024)",
  "key": {"[1]": {"tested_on": "ex vivo adult mixed sex S. mansoni", "test": "Phenotypic screen with ex vivo adult schistosomes", "type": "cell-based", "conditions": "for adult severity score: scale 0 to 4", "protocol": "In the next step, the bioactive compounds gallinamide A, 1, 6, and 9 (selected for structural analyses (see below)) were phenotypically screened against adult schistosomes. Experiments were performed at 1, 2, 5, and 10 μM with ex vivo adult mixed sex S. mansoni, and the phenotypes observed over 48 h were assigned severity scores ranging from 0 to 4 (Table 3 and Table S3).\nFor adult schistosomes, screens were performed in 24-well plates containing four male worms and one to two female worms per well in a final volume of 2 mL of complete Basch medium. Compounds were added at the final concentrations between 1 and 10 μM. Incubations were maintained for 48 h at 37 °C under 5% CO2. Afterward, the adult worms were collected, washed in RPMI 1640 medium, and used for soluble protein extract preparation.\nA constrained nomenclature of “descriptors”[39],[42] was used to record the multiple and dynamic changes in movement, shape, and translucence that the schistosome parasite is capable of (Table S1 for NTS and Table S3 for adults). These descriptors were then converted into an ordinal “severity score” system ranging from 0 (no effect) to 4 (maximum effect), which allows for the relative comparison of compound effects."}, "[2]": {"test": "Cytotoxicity, CellTiter Glo 2.0", "type": "cell-based", "conditions": "human, ± SD; for viability at 72 h, 1 µM: panel A, read-out: Cell line viability after 72 h (%); for viability at 24 h, 10 µM / viability at 48 h, 10 µM / viability at 72 h, 10 µM: panel B, read-out: Cell line viability (%) after treatment with 10 µM compound", "protocol": "Table S4. Cytotoxicity of gallinamides.\nCytotoxicity of gallinamide A and compounds 1, 6, and 9 was tested with four human cell lines and expressed as % viability vs. untreated cells. Cells were treated with the indicated compound concentrations for 72 h (A) or with 10 µM compounds for the indicated time (B) and assayed using CellTiter Glo 2.0 (Promega) according to the manufacturer’ s protocol. Cytotoxicity was expressed as percent viability compared to untreated control cells; the standard deviation of the mean of quadruplicate readings is shown. Cell line abbreviations: HL-60, human promyelocytic leukemia; HeLa, human cervical carcinoma; HepG2, human hepatocellular carcinoma; NHDF, normal human dermal fibroblasts.\nCell line viability after 72 h (%)\nCell line HL-60 HeLa HepG2 NHDF\nCell line viability (%) after treatment w ith 10 µM compound"}, "SmCB1": {"molecular_target": "SmCB1 (Schistosoma mansoni, UniProt Q8MNY2, T185A/T300A)", "sequence (Q8MNY2 87-340 T185A/T300A)": "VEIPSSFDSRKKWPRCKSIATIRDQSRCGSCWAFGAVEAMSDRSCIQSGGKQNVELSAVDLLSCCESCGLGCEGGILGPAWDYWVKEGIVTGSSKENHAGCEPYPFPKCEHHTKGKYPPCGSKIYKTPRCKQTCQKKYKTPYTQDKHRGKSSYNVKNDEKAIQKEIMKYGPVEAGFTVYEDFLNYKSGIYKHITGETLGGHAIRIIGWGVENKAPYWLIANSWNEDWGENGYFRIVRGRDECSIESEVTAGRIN", "test": "SmCB1 IC50 determination with 30 min preincubation", "type": "biochemical, S. mansoni", "protocol": "Inhibition measurements were performed in duplicate in 96-well microplates (100 μL assay volume) at 37 °C. SmCB1 (40 pM) was added to a mixture of the fluorogenic substrate Cbz–Phe–Arg–AMC (25 μM) and an inhibitor (0–100 μM) in 0.1 M sodium acetate, pH 5.5, containing 2.5 mM dithiothreitol and 0.01% (w/v) BRIJ 35. Substrate hydrolysis was monitored in an Infinite M1000 microplate reader (Tecan) at excitation and emission wavelengths of 360 and 465 nm, respectively, for up to 150 min. An observed first-order rate constant, kobs, was calculated at each inhibitor concentration by fitting the progress curve to the equation P = vi/kobs(1 – exp(−kobst)) + d where P is the product formation, t is the reaction time, vi is the initial velocity, and d is the offset. […] The second-order rate constant, k2nd, (and SE value) was determined by fitting the linear equation kobs = (k2nd[I])/(1 + [S]/Km), where [S] is the substrate concentration, [I] is the inhibitor concentration, and KM is the Michaelis–Menten constant. The KM value determined for SmCB1 was 25 μM. […] To determine IC50 values, SmCB1 (40 pM) was preincubated with the inhibitor (0–100 μM) for 30 min under assay conditions as described above, followed by the addition of the fluorogenic substrate Cbz–Phe–Arg–AMC (20 μM). Substrate hydrolysis was monitored for 30 min in a microplate reader as described above. The IC50 values were determined by nonlinear regression using GraFit software (Erithacus Software)."}},
  "note": "Like-named read-outs stand apart in the source and are kept apart here.",
  "data": [
    {"smiles": "COC1=CC(=O)N(C(=O)/C=C/[C@H](C)NC(=O)[C@H](CC(C)C)NC(=O)[C@H](CC(C)C)OC(=O)[C@H](Cc2ccccc2)N(C)C)[C@H]1Cc1ccccc1", "note": "[compound 6]", "values": [
      {"measurement": "adult phenotype descriptors", "setting": "[1]; 2 h, 1 µM", "result": "N"},
      {"measurement": "adult severity score", "setting": "[1]; 2 h, 1 μM", "result": 0},
      {"measurement": "adult phenotype descriptors", "setting": "[1]; 2 h, 2 µM", "result": "N"},
      {"measurement": "adult severity score", "setting": "[1]; 2 h, 2 μM", "result": 0},
      {"measurement": "adult phenotype descriptors", "setting": "[1]; 2 h, 5 µM", "result": "unc"},
      {"measurement": "adult severity score", "setting": "[1]; 2 h, 5 μM", "result": 1},
      {"measurement": "adult phenotype descriptors", "setting": "[1]; 2 h, 10 µM", "result": "unc, on sides"},
      {"measurement": "adult severity score", "setting": "[1]; 2 h, 10 μM", "result": 2},
      {"measurement": "adult phenotype descriptors", "setting": "[1]; 6 h, 1 µM", "result": "N"},
      {"measurement": "adult severity score", "setting": "[1]; 6 h, 1 μM", "result": 0},
      {"measurement": "adult phenotype descriptors", "setting": "[1]; 6 h, 2 µM", "result": "N"},
      {"measurement": "adult severity score", "setting": "[1]; 6 h, 2 μM", "result": 0},
      {"measurement": "adult phenotype descriptors", "setting": "[1]; 6 h, 5 µM", "result": "unc"},
      {"measurement": "adult severity score", "setting": "[1]; 6 h, 5 μM", "result": 1},
      {"measurement": "adult phenotype descriptors", "setting": "[1]; 6 h, 10 µM", "result": "unc, on sides"},
      {"measurement": "adult severity score", "setting": "[1]; 6 h, 10 μM", "result": 2},
      {"measurement": "adult phenotype descriptors", "setting": "[1]; 24 h, 1 µM", "result": "N"},
      {"measurement": "adult severity score", "setting": "[1]; 24 h, 1 μM", "result": 0},
      {"measurement": "adult phenotype descriptors", "setting": "[1]; 24 h, 2 µM", "result": "N"},
      {"measurement": "adult severity score", "setting": "[1]; 24 h, 2 μM", "result": 0},
      {"measurement": "adult severity score", "setting": "[1]; 24 h, 5 μM", "result": 2},
      {"measurement": "adult severity score", "setting": "[1]; 24 h, 10 μM", "result": 4},
      {"measurement": "adult phenotype descriptors", "setting": "[1]; 48 h, 1 µM", "result": "N"},
      {"measurement": "adult severity score", "setting": "[1]; 48 h, 1 μM", "result": 0},
      {"measurement": "adult phenotype descriptors", "setting": "[1]; 48 h, 2 µM", "result": "dark"},
      {"measurement": "adult severity score", "setting": "[1]; 48 h, 2 μM", "result": 1},
      {"measurement": "adult severity score", "setting": "[1]; 48 h, 5 μM", "result": 4},
      {"measurement": "adult severity score", "setting": "[1]; 48 h, 10 μM", "result": 4},
      {"measurement": "viability at 72 h, 1 µM", "setting": "[2]; HL-60, vs untreated cells", "result": "100 ± 5", "unit": "%"},
      {"measurement": "viability at 72 h, 1 µM", "setting": "[2]; HeLa", "result": "93 ± 4", "unit": "%"},
      {"measurement": "viability at 72 h, 1 µM", "setting": "[2]; HepG2", "result": "104 ± 3", "unit": "%"},
      {"measurement": "viability at 72 h, 1 µM", "setting": "[2]; NHDF", "result": "99 ± 3", "unit": "%"},
      {"measurement": "viability at 24 h, 10 µM", "setting": "[2]; HL-60", "result": "31 ± 1", "unit": "%"},
      {"measurement": "viability at 48 h, 10 µM", "setting": "[2]; HL-60", "result": "11 ± 2", "unit": "%"},
      {"measurement": "viability at 72 h, 10 µM", "setting": "[2]; HL-60", "result": 11, "unit": "%"},
      {"measurement": "viability at 24 h, 10 µM", "setting": "[2]; HeLa", "result": "45 ± 1", "unit": "%"},
      {"measurement": "viability at 48 h, 10 µM", "setting": "[2]; HeLa", "result": "13 ± 1", "unit": "%"},
      {"measurement": "viability at 72 h, 10 µM", "setting": "[2]; HeLa", "result": "13 ± 1", "unit": "%"},
      {"measurement": "viability at 24 h, 10 µM", "setting": "[2]; HepG2", "result": "61 ± 1", "unit": "%"},
      {"measurement": "viability at 48 h, 10 µM", "setting": "[2]; HepG2", "result": "14 ± 1", "unit": "%"},
      {"measurement": "viability at 72 h, 10 µM", "setting": "[2]; HepG2", "result": "13 ± 1", "unit": "%"},
      {"measurement": "viability at 24 h, 10 µM", "setting": "[2]; NHDF", "result": "100 ± 2", "unit": "%"},
      {"measurement": "viability at 48 h, 10 µM", "setting": "[2]; NHDF", "result": "35 ± 3", "unit": "%"},
      {"measurement": "viability at 72 h, 10 µM", "setting": "[2]; NHDF", "result": "13 ± 13", "unit": "%"},
      {"measurement": "IC50", "setting": "SmCB1", "result": 517, "unit": "nM"}
    ]}
  ]
}
